pIC50: −log10 of the molar value.
Tested on: Wnt activity (wnt-responsive SP5 promoter luciferase reporter in SW480 cells)
Assay: Wnt activity reporter assay (SP5 promoter-firefly luciferase in SW480 cells)
Type: cell-based
Details: Homo sapiens; SW480 colon cancer cells with SP5 promoter luciferase reporter; 24 h after compound addition; half-log dilutions, three micromolar top concentration; normalized to DMSO; read-out: Wnt inhibition
Procedure, shortened: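 SW480 cells (APC-mutant) stably carried a lentiviral SP5-promoter (eight TCF/LEF sites) firefly luciferase reporter. Signals were normalized to DMSO-only cells to derive IC50.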

CCCCC(=O)Nc1cncc(-c2ccc3[nH]nc(-c4nc5c(-n6cnc(C)c6)cccc5[nH]4)c3c2)c1 [Compound 186, N-(5-(3-(4-(4-Methyl-1H-imidazol-1-yl)-1H-benzo[d]imidazol-2-yl)-1H-indazol-5-yl)pyridin-3-yl)pentanamide] was tested, and the pIC50 was 8.22.
Compound Cc1cn(-c2cccc3[nH]c(-c4n[nH]c5ccc(-c6cncc(NC(=O)C7CCCC7)c6)cc45)nc23)cn1 [Compound 189, N-(5-(3-(4-(4-Methyl-1H-imidazol-1-yl)-1H-benzo[d]imidazol-2-yl)-1H-indazol-5-yl)pyridin-3-yl)cyclopentanecarboxamide] has a pIC50 of 7.89.
Cc1cn(-c2cccc3[nH]c(-c4n[nH]c5ccc(-c6cncc(CNCc7ccccc7)c6)cc45)nc23)cn1 [Compound 191, N-Benzyl-1-(5-(3-(4-(4-methyl-1H-imidazol-1-yl)-1H-benzo[d]imidazol-2-yl)-1H-indazol-5-yl)pyridin-3-yl)methanamine] gave a pIC50 of 6.86.
Compound CN1CCN(c2cccc3[nH]c(-c4n[nH]c5ccc(-c6cccnc6)cc45)nc23)CC1 [Compound 196, 3-(4-(4-Methylpiperazin-1-yl)-1H-benzo[d]imidazol-2-yl)-5-(pyridin-3-yl)-1H-indazole] has a pIC50 of 7.55.
Work on Cc1ccncc1-c1ccc2[nH]nc(-c3nc4c(N5CCN(C)CC5)cccc4[nH]3)c2c1 [Compound 197, 3-(4-(4-Methylpiperazin-1-yl)-1H-benzo[d]imidazol-2-yl)-5-(4-methylpyridin-3-yl)-1H-indazole] yielded a pIC50 of 6.60.
With CN1CCN(c2cccc3[nH]c(-c4n[nH]c5ccc(-c6cncc(NC(=O)C(C)(C)C)c6)cc45)nc23)CC1 [Compound 200, N-(5-(3-(4-(4-Methylpiperazin-1-yl)-1H-benzo[d]imidazol-2-yl)-1H-indazol-5-yl)pyridin-3-yl)pivalamide] the pIC50 was 7.12.
Work on CN1CCN(c2cccc3[nH]c(-c4n[nH]c5ccc(-c6cncc(NC(=O)Cc7ccccc7)c6)cc45)nc23)CC1 [Compound 202, N-(5-(3-(4-(4-methylpiperazin-1-yl)-1H-benzo[d]imidazol-2-yl)-1H-indazol-5-yl)pyridin-3-yl)-2-phenylacetamide] yielded a pIC50 of 6.61.
CCCC(=O)Nc1cncc(-c2ccc3[nH]nc(-c4nc5c(N6CCN(C)CC6)cccc5[nH]4)c3c2)c1 [Compound 209, N-(5-(3-(4-(4-Methylpiperazin-1-yl)-1H-benzo[d]imidazol-2-yl)-1H-indazol-5-yl)pyridin-3-yl)butyramide] showed a pIC50 of 7.21.
CN1CCN(c2cccc3[nH]c(-c4n[nH]c5ccc(-c6cncc(NC(=O)C7CCCC7)c6)cc45)nc23)CC1 [Compound 213, N-(5-(3-(4-(4-Methylpiperazin-1-yl)-1H-benzo[d]imidazol-2-yl)-1H-indazol-5-yl)pyridin-3-yl)cyclopentanecarboxamide] showed a pIC50 of 6.71.
CC(C)CC(=O)Nc1cncc(-c2ccc3[nH]nc(-c4nc5ccccc5[nH]4)c3c2)c1 [Compound 218, N-(5-(3-(1H-Benzo[d]imidazol-2-yl)-1H-indazol-5-yl)pyridin-3-yl)-3-methylbutanamide] gave a pIC50 of 7.43.
For c1cncc(-c2ccc3[nH]nc(-c4nc5ccccc5[nH]4)c3c2)c1 [Compound 220], the pIC50 was 6.78.
For Cc1ccncc1-c1ccc2[nH]nc(-c3nc4ccccc4[nH]3)c2c1 [Compound 221, 3-(1H-Benzo[d]imidazol-2-yl)-5-(4-methylpyridin-3-yl)-1H-indazole], the pIC50 was 6.50.
CCNCc1cncc(-c2ccc3[nH]nc(-c4nc5ccccc5[nH]4)c3c2)c1 [Compound 222] showed a pIC50 of 6.63.
Work on CC(C)C(=O)Nc1cncc(-c2ccc3[nH]nc(-c4nc5ccccc5[nH]4)c3c2)c1 [Compound 225, N-(5-(3-(1H-Benzo[d]imidazol-2-yl)-1H-indazol-5-yl)pyridin-3-yl) isobutyramide] yielded a pIC50 of 7.55.
With O=C(Nc1cncc(-c2ccc3[nH]nc(-c4nc5ccccc5[nH]4)c3c2)c1)c1ccccc1 [Compound 227, N-(5-(3-(1H-Benzo[d]imidazol-2-yl)-1H-indazol-5-yl)pyridin-3-yl) benzamide] the pIC50 was 7.00.
CC(C)(C)CC(=O)Nc1cncc(-c2ccc3[nH]nc(-c4nc5ccccc5[nH]4)c3c2)c1 [Compound 232, N-(5-(3-(1H-Benzo[d]imidazol-2-yl)-1H-indazol-5-yl)pyridin-3-yl)-3,3-dimethylbutanamide] showed a pIC50 of 7.19.
CCCCC(=O)Nc1cncc(-c2ccc3[nH]nc(-c4nc5ccccc5[nH]4)c3c2)c1 [Compound 234, N-(5-(3-(1H-Benzo[d]imidazol-2-yl)-1H-indazol-5-yl)pyridin-3-yl) pentanamide] was tested, and the pIC50 was 6.91.
Work on O=C(Nc1cncc(-c2ccc3[nH]nc(-c4nc5ccccc5[nH]4)c3c2)c1)C1CC1 [Compound 235, N-(5-(3-(1H-Benzo[d]imidazol-2-yl)-1H-indazol-5-yl)pyridin-3-yl) cyclopropanecarboxamide] yielded a pIC50 of 7.60.
Work on O=C(Nc1cncc(-c2ccc3[nH]nc(-c4nc5ccccc5[nH]4)c3c2)c1)C1CCCCC1 [Compound 238, N-(5-(3-(1H-Benzo[d]imidazol-2-yl)-1H-indazol-5-yl)pyridin-3-yl) cyclohexanecarboxamide] yielded a pIC50 of 6.83.
Work on c1ccc(CNCc2cncc(-c3ccc4[nH]nc(-c5nc6ccccc6[nH]5)c4c3)c2)cc1 [Compound 239, 1-(5-(3-(1H-Benzo[d]imidazol-2-yl)-1H-indazol-5-yl)pyridin-3-yl)-N-benzylmethanamine] yielded a pIC50 of 6.43.
In the case of CCNCc1cncc(-c2ccc3[nH]nc(-c4nc5c(-c6ccsc6)cccc5[nH]4)c3c2)c1 [Compound 246, N-((5-(3-(4-(Thiophen-3-yl)-1H-benzo[d]imidazol-2-yl)-1H-indazol-5-yl)pyridin-3-yl)methyl)ethanamine], the pIC50 was 7.85.
In the case of CC(C)C(=O)Nc1cncc(-c2ccc3[nH]nc(-c4nc5c(-c6ccsc6)cccc5[nH]4)c3c2)c1 [Compound 249, N-(5-(3-(4-(Thiophen-3-yl)-1H-benzo[d]imidazol-2-yl)-1H-indazol-5-yl)pyridin-3-yl)isobutyramide], the pIC50 was 7.89.
Work on CN(C)Cc1cncc(-c2ccc3[nH]nc(-c4nc5c(-c6ccsc6)cccc5[nH]4)c3c2)c1 [Compound 253, N,N-Dimethyl-1-(5-(3-(4-(thiophen-3-yl)-1H-benzo[d]imidazol-2-yl)-1H-indazol-5-yl)pyridin-3-yl)methanamine] yielded a pIC50 of 8.15.
c1cc(-c2ccsc2)c2nc(-c3n[nH]c4ccc(-c5cncc(CN6CCCC6)c5)cc34)[nH]c2c1 [Compound 254, 5-(5-(Pyrrolidin-1-ylmethyl)pyridin-3-yl)-3-(4-(thiophen-3-yl)-1H-benzo[d]imidazol-2-yl)-1H-indazole] was tested, and the pIC50 was 8.70.
In the case of Nc1cncc(-c2ccc3[nH]nc(-c4nc5c(-c6ccoc6)cccc5[nH]4)c3c2)c1 [Compound 267, 5-(3-(4-(Furan-3-yl)-1H-benzo[d]imidazol-2-yl)-1H-indazol-5-yl) pyridin-3-amine], the pIC50 was ≤ 5.38.
CC(C)(C)C(=O)Nc1cncc(-c2ccc3[nH]nc(-c4nc5c(-c6ccoc6)cccc5[nH]4)c3c2)c1 [Compound 272, N-(5-(3-(4-(Furan-3-yl)-1H-benzo[d]imidazol-2-yl)-1H-indazol-5-yl)pyridin-3-yl)pivalamide] showed a pIC50 of 6.80.
In the case of CC(C)Nc1cncc(-c2ccc3[nH]nc(-c4nc5c(-c6ccoc6)cccc5[nH]4)c3c2)c1 [Compound 276, 5-(3-(4-(Furan-3-yl)-1H-benzo[d]imidazol-2-yl)-1H-indazol-5-yl)-N-isopropylpyridin-3-amine], the pIC50 was 7.80.
